Results from patent publication US20160296506A1, “Methods and Compositions for Treating HIV Infection” (priority 2012, published 2016).

Legend:
Plasma protein binding = format: in vitro ADME
IV pharmacokinetics = format: in vivo, mice; conditions: dose 1 mg/kg; for half-life / Vd: mouse, plasma; for Vd: read-out: Vdss
[1] = PO plasma and brain levels; format: in vivo, mice; conditions: dose 10 mg/kg
Protocol: The pharmacokinetic behavior of a representative disclosed PLD inhibitor of the present invention was assessed following […]. Briefly, mice were administered a single dose of a representative PLD inhibitor, either VUO364739 or VU359595 (10 mg/kg) by either intravenous injection or by oral administration. Plasma samples and tissue samples (brain) were isolated at various time points following euthanizing animal. The samples were flash frozen and stored at −80° C. Analysis was carried out by LC-MS/MS following extraction.

HIV-1 [2] = test: HIV-1 replication in activated primary CD4+ T cells; format: cell-based, human; conditions: 10 μM, PHA/IL2 activated after EVJ treatment, FIG. 14
primary T-cells = test: dNTP increases in stimulated primary CD4 T-cells; format: cell-based, human; conditions: FIG. 14
Protocol: (§1) PLD inhibitors modulate intracellular deoxyribonucleotides levels. […] CD4 T-cells experiments were performed with ani-CD3/CD28-currently completing experiments with IL-2/phytohaemagglutinin (PHA)-stimulated CD4 T cells.

[3] = system: carbamoyl-phosphate synthetase 2, aspartate transcarbamylase, and dihydroorotase (CAD); test: CAD activity (phosphorylation at S1859) in IL-2/PHA-stimulated CD4 T cells; format: cell-based
Protocol: as §1

HIV-1 [4] = test: HIV-1 infection in PMA-stimulated THP-1 cells (flow cytometry); format: cell-based; conditions: 10 μM, 4 h pretreatment, HIV-1-GFP, 72 h post-infection, FIG. 10
HIV-1 [5] = test: HIV-1 infection of U87.CD4.CXCR4 cells; format: cell-based; conditions: data not shown
U87MG cells = test: SILAC proteomic analysis on U87MG cells; format: cell-based; conditions: EVJ on U87MG cells, FIG. 12
Protocol: A SILAC proteomic analysis was conducted using the PLD1-preferring inhibitor EVJ on U87MG cells.

CAD = test: dNTP levels with CAD overexpression; format: cell-based; conditions: FIG. 13
THP-1 cells = test: dNTP levels in THP-1 cells (HPLC-MS); format: cell-based; conditions: statement
Protocol: Briefly, Undifferentiated THP-1 cells (5×10̂6 cells/well) were treated with various inhibitors (10 μM EVJ, 10 μM JWJ, 100 nM rapamycin, 250 nM torin1, or 1 μM Go6976) for 16 h before harvest and extraction for HPLC-MS analysis of dNTP levels. Data represents analysis of triplicate samples.
Briefly, THP-1 cells (2.5×10^5 cells in 0.5 mL of c-RPMI (5×10^5/mL)/well) were seeded into 24-well plates and differentiated with 0.1 μM PMA for 24 h. Cells were then pretreated for 4 h with inhibitors (10 μM EVJ, 10 μM JWJ, 100 nM rapamycin, 250 nM torin1, or 10 μM concentration of two AKT inhibitors for comparison). Cells were then infected with HIV-1-GFP in the continued presence of inhibitors. Levels of infection were determined by flow cytometry (BD Biosciences FACSCalibur) 72 h post-infection. […] This difference is likely due to an increase in PLD1 activity in PMA-treated THP-1 cells.

Structure (SMILES) | Plasma Protein Binding (% bound) (Plasma protein binding) | CI (IV pharmacokinetics) | half-life (IV pharmacokinetics) | Vd (IV pharmacokinetics) | Plasma [1] | activity of CAD, phosphorylation at activation residue S1859 [3] | HIV-1 replication in THP-1 cells, undifferentiated vs PMA-differentiated (HIV-1 [4]) | HIV-1 infection of U87.CD4.CXCR4 cells (HIV-1 [5]) | dNTP levels upon CAD over expression (CAD) | Deoxyribonucleotide (dNTP) levels (THP-1 cells) | other results
C[C@@H](CN1CCC(n2c(=O)[nH]c3cc(Br)ccc32)CC1)NC(=O)[C@@H]1C[C@@H]1c1ccccc1 [No. 2, (1R,2S)-N-((S)-1-(4-(5-bromo-2-oxo-2,3-dihydro-1H-benzo[d]imidazol-1-yl)piperidin-1-yl)propan-2-yl)-2-phenylcyclopropane carboxamide] | 97.9 % bound | 61.5 mL/min/kg | 1.52 h | 8.1 L/kg | 39.9 ng/kg | suppress activity | more robust effect on HIV-1 replication in PMA-differentiated THP-1 cells | inhibit HIV-1 infection | partially rescues the dNTP biosynthetic phenotype |  | Brain [1]: 29 ng/kg; Kp ([1]; mouse, brain/plasma): 0.73; HIV-1 replication in activated primary CD4+ T cells (HIV-1 [2]): inhibits HIV-1 replication; dNTP increases in CD4-receptor stimulated primary T-cells from human donors (primary T-cells): blunt dNTP increases; signaling pathway changed (network analysis) (U87MG cells): mTORC1 signaling is the predominant signaling pathway changed
NC1(c2ccc(-c3nc4ccn5c(=O)[nH]nc5c4cc3-c3ccccc3)cc2)CCC1 [MK2206, reference compound] |  |  |  |  |  |  |  |  | continues to block dNTP levels | potently reduced | 
O=C(NCCN1CCC2(CC1)C(=O)NCN2c1cccc(F)c1)c1ccc2ccccc2c1 [No. 1, N-(2-(1-(3-fluorophenyl)-4-oxo-1,3,8-triazaspiro [4.5]decan-8-yl)ethyl)-2-naphthamide] | 98.1 % bound | 60.7 mL/min/kg | 0.78 h | 4.7 L/kg | 29 ng/kg |  | inhibits HIV-1 replication under both conditions | inhibit HIV-1 infection |  |  | Brain (ng/kg) [1]: BLQ; Brain: Plasma [1]: BLQ
CCC(=O)N1CCN(c2ccc(-n3c(=O)ccc4cnc5ccc(-c6cnc7ccccc7c6)cc5c43)cc2C(F)(F)F)CC1 [Torin1] |  |  |  |  |  | suppress activity |  |  |  | potently reduced | 
CNC(=O)c1cccc(-c2ccc3c(N4CCOC[C@@H]4C)nc(N4CCOC[C@@H]4C)nc3n2)c1 [AZD2014] |  |  |  |  |  | suppress activity |  |  |  |  | 
NC(=O)NO [Hydroxyurea] |  |  |  |  |  | comparative modest effects |  |  |  |  | 
